According to patent US20240342156A1, “METHODS FOR TREATING PAIN” (Xenon Pharmaceuticals Inc., priority 2019, published 2024):
Like-named read-outs stand apart in the source and are kept apart here.

What was measured:
[1] = Crossover study with pharmacokinetic analysis, single oral dose in healthy male subjects; assay type: in vivo, human; settings: for concentration at 6 days: oral, subjects who received placebo in Period 2
From the text: The pharmacokinetics (PK), safety, and tolerability of single doses of Compound A in healthy right-handed male human subjects were investigated in a randomized, double-blind, placebo-controlled, transcranial magnetic stimulation (TMS) crossover study.
An objective of the study was to evaluate the safety, tolerability, and pharmacokinetics of single doses of Compound A in healthy male subjects.
Twenty healthy right-handed male subjects were enrolled and randomized in a blinded fashion to receive a single oral dose of 20 mg Compound A or placebo (1:1 randomization ratio) on Day 1, then were crossed over to receive a single dose of the other treatment on Day 7.
Subjects were screened within 27 days prior to entering the study on Day 1. For Period 1, subjects were admitted to the study unit and dosed on Day 1, and discharged on Day 2. For Period 2, following a washout of 6 days, the same subjects were again admitted to the study unit and dosed on Day 7, and discharged on Day 8. All subjects returned to the clinical unit for an outpatient visit on Day 14, and received a follow-up telephone call on Day 37.
Subjects were dosed in a fed state, but the timing of dosing relative to meals was changed during the study, and varied between a high fat or standard meal eaten either 2 h or 30 minutes prior to dosing, and a high fat or standard meal eaten 1 h or 2.5 h after dosing.
The PK parameters for this study were summarized in two ways. Firstly, PK parameters were calculated where possible using the PK samples collected during each 24 h sampling period for Period 1 and Period 2 separately. Secondly, PK parameters were determined using samples beyond the 24 h sampling period (i.e., from Day 7/8 and/or Day 14). For subjects who received Compound A in the first period, PK samples taken prior to placebo treatment provided additional PK timepoints at >24 h. For subjects who received Compound A in the second period, there was no >24 h PK timepoint until a Day 14 PK sample was added. […] The full PK profile data set consists of the 16 subjects for whom PK samples were taken at >24 h post-dose. For discussion of the PK parameters below, the full PK profile data set was generally used, because it allowed more accurate estimation of PK parameters.
Initially, subjects were dosed 2 hours after a high fat meal with a relatively high fat lunch provided 1 hour after dosing. After blinded review of the PK profiles in the initial 8 subjects, the fat content of the lunch was reduced in an attempt to reduce the time to Tmax. In addition, the timing of the meal relative to dose was changed from 2 hours prior, to 30 minutes prior to dose and subsequently the fat content of the breakfast was reduced. The timing and type of meal for each subject is specified in Table 8. […] As such the PK data is presented without categorization according to meal content, or relative timing of the meal.

[2] = tested on: CD1 mice (acetic acid induced writhing); test: Acetic acid writhing (AAW) mouse model of visceral/inflammatory pain; assay type: in vivo; settings: for EC50: Mus musculus, PK/PD correlation; for number of nociceptive events: CD1 mice, 0.4% acetic acid i.p.
Experimental: Objective: The acetic acid test was performed to assess the potential efficacy of Compound A in the acetic acid writhing (AAW) model of inflammatory pain. The AAW test was performed as described previously ([…] Bi et al., “Visceral hyperalgesia induced by forebrain-specific suppression of native Kv7/KCNQ/M-current in mice.” Mol. Pain 2011, 7:84; Gabriela F. Pavao-de-Souza et al., “Acetic acid- and phenyl-p-benzoquinone-induced overt pain-like behavior depends on spinal activation of MAP kinases, PI3K and microglia in mice.” Pharmacol. Biochem. Behav. 101 (2012) 320-328; […] Lett. 413 (2007) 159-162; Mosad A. Ghareeb et al., “HPLC-ESI-MS/MS Profiling of Polyphenolics of a Leaf Extract from Alpinia zerumbet (Zingiberaceae) and Its Anti-Inflammatory, Anti-Nociceptive, and Antipyretic Activities In Vivo.” Molecules 23 (2018) 3238; and […] et al., “Analgesic Activity of Acid-Sensing Ion Channel 3 (ASIC3) Inhibitors: Sea Anemones Peptides Ugr9-1 and APETx2 versus Low Molecular Weight Compounds.” Mar. Drugs 16 (2018), 500). Study Design: Briefly, acetic acid was injected intraperitoneally at 0.4% concentration in 6-7 week old CD1 mice. After the injection of acetic acid, animals were placed in a chamber and their subsequent writhing behavior was video recorded. A writhe is defined as contraction of abdominal muscles accompanied by elongation of the body and extension of hind limbs or rotation of the trunk. […] were counted between 5-15 min after the injection of acetic acid. Selection of Acetic Acid Dose: Based on the concentration response (0.2-0.8%) of acetic acid in CD1 mice, EC75 concentration (0.4%) was selected to produce optimal writhing response. Diclofenac was used as positive control in the acetic acid model.

[3] = 20 mg single oral dose, fed, Full PK Profile (N = 16)
[4] = 20 mg single oral dose, fed, Overall (N = 20)
[5] = 20 mg single oral dose, fed, Period 1 (N = 10)
[6] = 20 mg single oral dose, fed, Period 2 (N = 10)
[7] = 20 mg single oral dose, full PK data set

With `Cc1cc(N2CCc3cc(F)ccc3C2)cc(C)c1NC(=O)CC(C)(C)C` [Compound A, N-[4-(6-fluoro-3,4-dihydro-TH-isoquinolin-2-yl)-2,6-dimethylphenyl]-3,3-dimethylbutanamide] the “Clast (ng/mL), Mean ± SD” value [1, 3] was 4.52 ± 1.82 ng/mL, the “Clast (ng/mL), Range” value [1, 3] was 1.33 to 7.67 ng/mL and the “Tlast (h), Mean ± SD” value [1, 3] was 235 ± 81.5 h. The “Tlast (h), Range” value [1, 3] was 142 to 360 h, the “Clast (ng/mL), Mean ± SD” value [1, 4] was 16.4 ± 4.69 ng/mL and the “Clast (ng/mL), Range” value [1, 4] was 7.1 to 27.8 ng/mL. For the same compound, the “Tlast (h), Mean ± SD” value [1, 4] was 23.8 ± 0.299 h, the “Tlast (h), Range” value [1, 4] was 23.1 to 24.3 h and the “Tmax (h), Median” value [1, 4] was 7.83 h. For the same compound, the “Tmax (h), Range” value [1, 4] was 1.92 to 12 h, the “Clast (ng/mL), Mean ± SD” value [1, 5] was 16.4 ± 5.61 ng/mL and the “Clast (ng/mL), Range” value [1, 5] was 10.1 to 27.8 ng/mL. The “Tlast (h), Mean ± SD” value [1, 5] was 23.8 ± 0.375 h, the “Tlast (h), Range” value [1, 5] was 23.1 to 24.3 h and the “Clast (ng/mL), Mean ± SD” value [1, 6] was 16.4 ± 3.87 ng/mL. For the same compound, the “Clast (ng/mL), Range” value [1, 6] was 7.1 to 21.3 ng/mL, the “Tlast (h), Mean ± SD” value [1, 6] was 23.8 ± 0.213 h and the “Tlast (h), Range” value [1, 6] was 23.5 to 24.1 h. For the same compound, the “extrapolated area (% AUCextrap), median” value [1, 7] was 19.9%, the “extrapolated area (% AUCextrap), range” value [1, 7] was 10.6-40.5% and the concentration at 6 days ([1]; male, human, plasma, 20 mg, read-out: Compound A levels after washout between periods, mean) was 3.1 ng/mL. For the same compound, the concentration at 6 days ([1]; male, human, plasma, 20 mg, read-out: Compound A levels after washout between periods, range) was 1.3 to 6.8 ng/mL, the concentration at 2 h ([1]; male, human, plasma, po, 20 mg, 2 h timepoint, 20 mg single oral dose, full PK profile, read-out: mean SD plasma concentration) was 15.9 ± 21.4 ng/mL and the concentration at 4 h ([1]; male, human, plasma, po, 20 mg, 4 h timepoint, 20 mg single oral dose, full PK profile, read-out: mean SD plasma concentration) was 30.2 ± 21.1 ng/mL. It also gave a concentration at 6 h ([1]; male, human, plasma, po, 20 mg, 6 h timepoint, 20 mg single oral dose, full PK profile, read-out: mean SD plasma concentration) of 42.1 ± 19.1 ng/mL, an AUC(0-inf) ([1]; male, human, plasma, 20 mg single oral dose, fed, Full PK Profile Data Set (N = 16), read-out: AUCinf (ng*h/mL), Range) of 1920 to 7390 ng·h/mL and an AUC(0-t) ([1]; male, human, plasma, 20 mg single oral dose, fed, Full PK Profile Data Set (N = 16), read-out: AUClast (ng*h/mL), Range) of 1580 to 4400 ng·h/mL. It also gave a CL/F ([1]; male, human, plasma, 20 mg single oral dose, fed, Full PK Profile Data Set (N = 16), read-out: CL/F normalized (mL/h/kg), Range) of 40.3 to 136 mL/h/kg, an MRT inf ([1]; male, human, plasma, 20 mg single oral dose, fed, Full PK Profile Data Set (N = 16), read-out: MRTinf (h), Range) of 33 to 304 h and an MRT last ([1]; male, human, plasma, 20 mg single oral dose, fed, Full PK Profile Data Set (N = 16), read-out: MRTlast (h), Range) of 48.2 to 122 h. For the same compound, the Vd/F ([1]; male, human, plasma, 20 mg single oral dose, fed, Full PK Profile Data Set (N = 16), read-out: Vz/F normalized (L/kg), Range) was 6.4 to 33.8 L/kg, the Tmax ([1]; male, human, plasma, 20 mg single oral dose, fed, Overall (N = 20), read-out: Tmax (h), Median) was about 8 h and the EC50 ([2]; read-out: EC50 (effective concentration to give a 50% reduction in nociceptive events), concentration in brain) was 0.4 µM. The EC50 ([2]; read-out: EC50 (effective concentration to give a 50% reduction in nociceptive events), concentration in plasma) was 0.25 µM, the “number of nociceptive events” value ([2]; Study 1, vehicle, 1, 3 and 10 mg/kg) was “dose-responsive decrease” and the “number of nociceptive events” value ([2]; Study 2, 10 mg/kg) was “decrease”.
